Laboratory results from patent US12303497B2, “Anti-androgens for the treatment of metastatic castration-sensitive prostate cancer” (priority 2019, dated 2025).

Tests used:
patients with CRPC = experiment: Dedicated QT study (QTc interval); assay type: in vivo, human
Description: The maximum mean QTcF change from baseline was 12.4 ms (2-sided 90% upper CI. 16.0 ms).

[1] = test system: mouse xenograft models of prostate cancer; experiment: Mouse xenograft models of prostate cancer; assay type: in vivo; conditions: decreased tumor cell proliferation and increased apoptosis
[2] = Effect of food on apalutamide pharmacokinetics (healthy subjects); assay type: in vivo, human
Protocol: Median time to reach tmax was delayed approximately 2 hours with food.

[3] = Single oral administration of radiolabeled apalutamide (AUC share, excretion); assay type: in vivo
[4] = test system: multidrug and toxin extrusions (MATEs); experiment: In vitro transporter inhibition; assay type: in vitro ADME
[5] = test system: bacterial reverse mutation (Ames) assay; assay type: cell-based
rat bone marrow = experiment: In vivo rat bone marrow micronucleus assay
rat = experiment: In vivo rat Comet assay
male rats = experiment: Repeat-dose toxicity study in male rats (up to 26 weeks); assay type: in vivo, rat
dogs = experiment: Repeat-dose toxicity study in dogs (up to 39 weeks); assay type: in vivo, dog
[6] = Ionization under physiological pH; assay type: physicochemical; conditions: relevant physiological pH condition
CYP1A2 = CYP1A2 (Homo sapiens, UniProt P05177); experiment: In vitro effect on CYP; conditions: therapeutically relevant concentrations
CYP2B6 = CYP2B6 (Homo sapiens, UniProt P20813); experiment: In vitro CYP inhibition
CYP2C9 = CYP2C9 (Homo sapiens, UniProt P11712); experiment: In vitro CYP inhibition
CYP2C19 = CYP2C19 (Homo sapiens, UniProt P33261); experiment: In vitro CYP inhibition
[7] = target: organic cation transporter 2 (OCT2) (Homo sapiens, UniProt O15244); experiment: In vitro transporter inhibition
BCRP = BCRP (Homo sapiens, UniProt Q9UNQ0); experiment: In vitro transporter substrate study
OATP1B1 = OATP1B1 (Homo sapiens, UniProt Q9Y6L6); experiment: In vitro transporter substrate study
OATP1B3 = OATP1B3 (Homo sapiens, UniProt Q9NPD5); experiment: In vitro transporter substrate study
CYP2C8 [8] = target: T1, CYP2C8 (Homo sapiens, UniProt P10632); experiment: Co-administration with gemfibrozil (strong CYP2C8 inhibitor); assay type: in vivo; design: endogenous in cells; host or cells: human subjects, in vivo; conditions: ERLEADA 240 mg single dose with gemfibrozil
T1 sequence (P10632 1-490): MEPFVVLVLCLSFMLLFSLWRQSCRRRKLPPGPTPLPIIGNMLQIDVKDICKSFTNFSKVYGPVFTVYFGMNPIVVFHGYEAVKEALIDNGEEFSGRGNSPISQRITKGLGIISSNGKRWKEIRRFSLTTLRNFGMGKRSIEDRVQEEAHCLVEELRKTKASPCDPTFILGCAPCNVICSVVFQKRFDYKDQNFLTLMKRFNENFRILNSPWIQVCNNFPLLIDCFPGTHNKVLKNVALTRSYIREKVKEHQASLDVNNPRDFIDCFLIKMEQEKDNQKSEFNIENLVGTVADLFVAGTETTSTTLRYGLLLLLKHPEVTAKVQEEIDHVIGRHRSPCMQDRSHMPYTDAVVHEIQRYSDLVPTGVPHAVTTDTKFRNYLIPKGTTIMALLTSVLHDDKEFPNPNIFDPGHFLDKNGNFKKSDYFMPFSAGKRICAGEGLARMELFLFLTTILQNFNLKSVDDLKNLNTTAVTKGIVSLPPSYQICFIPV

CYP3A4 = CYP3A4 (Homo sapiens, UniProt P08684); experiment: Co-administration with itraconazole (strong CYP3A4 inhibitor); assay type: in vivo; design: endogenous in cells; host or cells: human subjects, in vivo; conditions: ERLEADA 240 mg single dose with itraconazole
CYP2C8 [9] = target: T1, CYP2C8; experiment: Contribution of CYP2C8 in the metabolism of apalutamide; design: endogenous in cells; host or cells: human subjects, in vivo; conditions: estimated
Description: Metabolism is the main route of elimination of apalutamide.

[10] = up to 70 days after single oral radiolabeled dose

CYP3A4, sequence (P08684 whole entry): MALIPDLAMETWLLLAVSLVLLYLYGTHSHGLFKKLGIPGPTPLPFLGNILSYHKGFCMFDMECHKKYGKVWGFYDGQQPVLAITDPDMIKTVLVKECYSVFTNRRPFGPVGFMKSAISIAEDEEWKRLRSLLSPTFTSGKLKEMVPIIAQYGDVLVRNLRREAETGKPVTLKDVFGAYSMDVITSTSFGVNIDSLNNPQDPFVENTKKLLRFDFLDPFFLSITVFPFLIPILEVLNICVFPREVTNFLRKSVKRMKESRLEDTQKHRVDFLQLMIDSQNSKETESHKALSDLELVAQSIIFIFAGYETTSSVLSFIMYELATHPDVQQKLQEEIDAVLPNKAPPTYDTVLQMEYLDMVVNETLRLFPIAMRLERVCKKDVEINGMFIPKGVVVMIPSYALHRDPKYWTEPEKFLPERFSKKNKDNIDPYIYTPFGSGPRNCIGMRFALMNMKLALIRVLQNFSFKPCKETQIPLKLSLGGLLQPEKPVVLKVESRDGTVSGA
OATP1B1, sequence (Q9Y6L6 whole entry): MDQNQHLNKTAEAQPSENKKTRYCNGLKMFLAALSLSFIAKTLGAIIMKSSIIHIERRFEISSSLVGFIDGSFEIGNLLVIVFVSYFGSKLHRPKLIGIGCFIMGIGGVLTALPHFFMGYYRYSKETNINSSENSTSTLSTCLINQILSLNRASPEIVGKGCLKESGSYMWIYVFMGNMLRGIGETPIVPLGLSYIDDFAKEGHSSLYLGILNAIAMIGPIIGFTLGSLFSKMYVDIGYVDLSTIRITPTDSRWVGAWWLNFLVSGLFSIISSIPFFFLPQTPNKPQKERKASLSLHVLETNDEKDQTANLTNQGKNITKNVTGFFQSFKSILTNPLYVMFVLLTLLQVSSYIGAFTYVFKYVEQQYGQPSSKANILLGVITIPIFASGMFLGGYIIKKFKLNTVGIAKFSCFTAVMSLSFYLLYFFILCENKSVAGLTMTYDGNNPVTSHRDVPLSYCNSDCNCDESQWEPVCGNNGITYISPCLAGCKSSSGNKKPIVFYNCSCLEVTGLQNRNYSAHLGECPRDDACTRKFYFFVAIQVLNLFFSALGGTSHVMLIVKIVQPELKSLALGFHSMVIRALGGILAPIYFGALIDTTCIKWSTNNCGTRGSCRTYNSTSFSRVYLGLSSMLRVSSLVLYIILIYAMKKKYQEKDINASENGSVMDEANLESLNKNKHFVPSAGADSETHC
CYP1A2, sequence (P05177 whole entry): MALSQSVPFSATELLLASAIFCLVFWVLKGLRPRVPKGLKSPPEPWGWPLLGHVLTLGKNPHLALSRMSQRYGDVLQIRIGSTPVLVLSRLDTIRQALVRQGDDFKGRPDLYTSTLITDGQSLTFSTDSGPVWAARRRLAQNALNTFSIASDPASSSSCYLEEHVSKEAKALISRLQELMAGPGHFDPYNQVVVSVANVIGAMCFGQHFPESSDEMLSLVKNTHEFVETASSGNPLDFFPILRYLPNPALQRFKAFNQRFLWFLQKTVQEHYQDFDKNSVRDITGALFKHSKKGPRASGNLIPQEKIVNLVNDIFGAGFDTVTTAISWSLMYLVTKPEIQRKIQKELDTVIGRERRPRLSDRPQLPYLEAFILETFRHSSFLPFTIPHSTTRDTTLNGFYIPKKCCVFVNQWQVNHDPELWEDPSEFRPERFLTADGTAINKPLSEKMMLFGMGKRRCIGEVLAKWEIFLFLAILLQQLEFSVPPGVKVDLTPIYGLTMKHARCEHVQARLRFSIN
CYP2C9, sequence (P11712 whole entry): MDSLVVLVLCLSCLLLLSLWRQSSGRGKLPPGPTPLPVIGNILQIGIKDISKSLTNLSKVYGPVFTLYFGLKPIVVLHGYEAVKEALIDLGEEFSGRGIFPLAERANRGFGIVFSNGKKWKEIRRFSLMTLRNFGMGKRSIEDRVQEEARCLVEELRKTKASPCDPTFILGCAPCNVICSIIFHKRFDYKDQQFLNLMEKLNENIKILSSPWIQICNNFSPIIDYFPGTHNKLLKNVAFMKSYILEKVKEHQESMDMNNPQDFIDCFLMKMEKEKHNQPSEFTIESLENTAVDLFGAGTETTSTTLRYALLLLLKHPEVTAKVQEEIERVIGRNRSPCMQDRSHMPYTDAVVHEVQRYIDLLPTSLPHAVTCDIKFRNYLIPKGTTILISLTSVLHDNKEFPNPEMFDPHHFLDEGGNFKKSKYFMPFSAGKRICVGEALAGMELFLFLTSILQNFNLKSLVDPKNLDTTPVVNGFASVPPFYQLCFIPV
BCRP, sequence (Q9UNQ0 whole entry): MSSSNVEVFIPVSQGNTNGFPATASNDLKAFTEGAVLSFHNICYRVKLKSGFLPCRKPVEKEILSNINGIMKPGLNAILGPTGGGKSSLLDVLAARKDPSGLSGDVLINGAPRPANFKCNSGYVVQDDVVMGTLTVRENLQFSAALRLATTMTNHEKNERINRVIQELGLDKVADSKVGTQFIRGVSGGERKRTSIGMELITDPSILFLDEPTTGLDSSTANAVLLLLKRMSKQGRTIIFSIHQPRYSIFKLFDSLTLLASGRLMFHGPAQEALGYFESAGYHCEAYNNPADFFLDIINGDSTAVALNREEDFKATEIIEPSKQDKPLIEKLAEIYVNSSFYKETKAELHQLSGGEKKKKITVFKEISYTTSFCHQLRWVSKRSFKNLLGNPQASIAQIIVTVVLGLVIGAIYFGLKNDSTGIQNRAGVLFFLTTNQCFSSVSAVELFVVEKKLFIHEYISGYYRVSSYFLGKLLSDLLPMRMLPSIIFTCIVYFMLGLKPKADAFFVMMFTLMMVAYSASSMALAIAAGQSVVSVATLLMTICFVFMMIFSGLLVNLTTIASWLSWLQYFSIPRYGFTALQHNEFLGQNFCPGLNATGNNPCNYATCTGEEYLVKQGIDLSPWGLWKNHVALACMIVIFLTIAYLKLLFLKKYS
organic cation transporter 2 (OCT2), sequence (O15244 whole entry): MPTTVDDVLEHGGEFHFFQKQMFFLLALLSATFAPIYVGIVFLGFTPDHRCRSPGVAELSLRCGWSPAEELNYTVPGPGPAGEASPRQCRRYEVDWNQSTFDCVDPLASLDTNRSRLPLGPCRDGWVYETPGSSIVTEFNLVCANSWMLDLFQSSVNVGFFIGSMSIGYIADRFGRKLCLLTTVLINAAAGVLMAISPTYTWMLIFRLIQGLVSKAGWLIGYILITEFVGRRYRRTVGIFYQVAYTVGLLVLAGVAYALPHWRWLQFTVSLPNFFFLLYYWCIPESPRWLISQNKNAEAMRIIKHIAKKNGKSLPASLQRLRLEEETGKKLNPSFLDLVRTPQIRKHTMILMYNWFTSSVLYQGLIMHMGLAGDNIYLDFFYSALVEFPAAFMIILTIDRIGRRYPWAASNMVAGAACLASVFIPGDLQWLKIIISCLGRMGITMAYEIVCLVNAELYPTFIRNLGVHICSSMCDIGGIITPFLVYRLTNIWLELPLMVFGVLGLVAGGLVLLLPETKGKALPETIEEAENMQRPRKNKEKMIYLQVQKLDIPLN
CYP2B6, sequence (P20813 whole entry): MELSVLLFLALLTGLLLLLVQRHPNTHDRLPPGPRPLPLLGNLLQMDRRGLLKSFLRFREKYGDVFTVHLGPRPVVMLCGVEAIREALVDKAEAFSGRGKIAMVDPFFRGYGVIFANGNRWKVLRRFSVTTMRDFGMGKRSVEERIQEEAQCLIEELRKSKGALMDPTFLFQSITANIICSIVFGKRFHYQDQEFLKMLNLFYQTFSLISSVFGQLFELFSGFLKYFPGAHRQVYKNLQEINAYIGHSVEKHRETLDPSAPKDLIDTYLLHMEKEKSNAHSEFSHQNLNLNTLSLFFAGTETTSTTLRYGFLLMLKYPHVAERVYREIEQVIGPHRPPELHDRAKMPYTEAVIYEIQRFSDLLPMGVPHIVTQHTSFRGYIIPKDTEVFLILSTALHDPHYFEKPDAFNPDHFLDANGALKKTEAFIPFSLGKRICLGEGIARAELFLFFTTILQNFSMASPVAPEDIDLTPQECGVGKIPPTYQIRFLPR
OATP1B3, sequence (Q9NPD5 whole entry): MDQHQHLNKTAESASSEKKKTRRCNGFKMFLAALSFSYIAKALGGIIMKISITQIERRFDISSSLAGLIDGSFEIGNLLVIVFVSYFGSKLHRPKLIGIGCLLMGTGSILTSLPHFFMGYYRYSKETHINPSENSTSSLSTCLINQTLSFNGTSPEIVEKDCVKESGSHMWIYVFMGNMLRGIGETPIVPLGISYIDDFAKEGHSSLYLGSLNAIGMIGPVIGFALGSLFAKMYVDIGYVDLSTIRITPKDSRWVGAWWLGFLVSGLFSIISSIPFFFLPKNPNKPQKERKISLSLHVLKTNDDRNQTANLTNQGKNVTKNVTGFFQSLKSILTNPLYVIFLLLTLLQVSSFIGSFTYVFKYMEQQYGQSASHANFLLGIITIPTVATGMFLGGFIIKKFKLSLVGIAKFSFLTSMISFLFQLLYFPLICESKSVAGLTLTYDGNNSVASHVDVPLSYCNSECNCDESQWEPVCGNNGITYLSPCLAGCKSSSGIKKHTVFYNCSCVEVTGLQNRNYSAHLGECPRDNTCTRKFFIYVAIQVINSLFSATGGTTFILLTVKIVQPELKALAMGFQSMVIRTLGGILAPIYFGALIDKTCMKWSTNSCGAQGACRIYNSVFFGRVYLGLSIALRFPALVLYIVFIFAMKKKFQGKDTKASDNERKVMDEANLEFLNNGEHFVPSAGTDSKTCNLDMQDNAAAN

CNC(=O)c1ccc(N2C(=S)N(c3cnc(C#N)c(C(F)(F)F)c3)C(=O)C23CCC3)cc1F [Apalutamide, 4-[7-(6-cyano-5-trifluoromethylpyridin-3-yl)-8-oxo-6-thioxo-5,7-diazaspiro[3.4]oct-5-yl]-2-fluoro-N-methylbenzamide]
Maximum mean QTcF change from baseline (patients with CRPC; apalutamide 240 mg once daily, 45 patients with CRPC, 2-sided 90% upper CI 16.0 ms): 12.4 ms
Exposure-QT analysis (patients with CRPC; in vivo): concentration-dependent increase in QTcF
Effect on tumors [1]: decreased tumor volume
Change in Cmax and AUC with a high-fat meal vs fasting [2]: no clinically relevant changes
Share of the total AUC ([3]; single oral radiolabeled apalutamide 240 mg): 45%
Dose recovered in feces [3, 10]: 24%
Dose recovered in feces as this compound [3, 10]: 1.5%
Dose recovered in urine [3, 10]: 65%
Dose recovered in urine as this compound [3, 10]: 1.2%
Inhibition of MATEs [4]: inhibit
Mutagenicity [5]: did not induce mutations
Genotoxicity (rat bone marrow): not genotoxic
Genotoxicity (rat): not genotoxic
Dose at which atrophy of prostate gland and seminal vesicles, aspermia/hypospermia, tubular degeneration and/or interstitial cell hyperplasia or hypertrophy were observed (male rats): ≥ 25 mg/kg/day
Dose at which atrophy of prostate gland and seminal vesicles, aspermia/hypospermia, tubular degeneration and/or interstitial cell hyperplasia or hypertrophy were observed (dogs): ≥ 2.5 mg/kg/day
Ionization [6]: not ionizable
Effect on CYP1A2 (CYP1A2): do not affect
CYP2B6 inhibition (CYP2B6): moderate inhibitors
CYP2C9 inhibition (CYP2C9): weak inhibitors
CYP2C19 inhibition (CYP2C19): weak inhibitors
Inhibition of OCT2 [7]: inhibit
Substrate for BCRP (BCRP): not
Substrate for OATP1B1 (OATP1B1): not
Substrate for OATP1B3 (OATP1B3): not
Apalutamide AUC increase (CYP2C8 [8]): 68%
Apalutamide Cmax decrease (CYP2C8 [8]): 21%
Apalutamide AUC change (CYP3A4): similar
Apalutamide Cmax decrease (CYP3A4): 22%
Contribution of CYP2C8 in the metabolism of apalutamide (CYP2C8 [9]; at steady-state): 40%
Contribution of CYP2C8 in the metabolism of apalutamide (CYP2C8 [9]; following single dose): 58%
